Literature values in patent EP2408442B1, “PHARMACEUTICAL COMPOSITION PRESENTING ANTI-INFLAMMATORY PROPERTIES” (Bioxtract S.A., priority 2009, dated 2010).

Settings: 42 or 84 mg of oral not formulated curcumin, including metabolised forms (glucuronides or sulfates)

- oral bioavailability: not bioavailable at all
Structure (SMILES): COc1cc(C=CC(=O)CC(=O)C=Cc2ccc(O)c(OC)c2)ccc1O [curcumin, 1,7-bis(4-hydroxyl-3-methoxyphenyl)-1,6-heptadiene-3,5-dione]
